Data: PubChem BioAssay (NCI)
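Each compound was tested at five concentrations against cells in 96-well plates for 48 hours. Definition used: TGI = concentration required for complete inhibition of growth.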 Where a SMILES comes first, the peptide text is derived from it. [ ]: non-standard residue; d: D form. The star is where a group is joined. hSer = N[CH](CCO)C(=O)O; Boc = CC(C)(C)OC(=O)*

Key:
Assay in all cases: NCI tumour cell line growth inhibition, 48 h
[1] = test system: HCT-15 colon
[2] = test system: MOLT-4 leukemia
[3] = test system: HS 578T breast
[4] = test system: KM12 colon
[5] = test system: SK-MEL-28 melanoma
[6] = test system: K-562 leukemia
[7] = test system: OVCAR-5 ovarian
[8] = test system: EKVX NSCLC
[9] = test system: A498 renal
[10] = test system: UACC-257 melanoma

Row | SMILES | TGI [1] | TGI [2] | TGI [3] | TGI [4] | TGI [5] | TGI [6] | TGI [7] | TGI [8] | TGI [9] | TGI [10]
1 | COC(=O)OC[C@H]1O[C@@H](n2cc(C)c(=O)[nH]c2=O)CC1OC(=O)OC (stereo partly drawn) | > 100 µM | > 100 µM | > 100 µM | > 100 µM | > 100 µM | > 100 µM | > 100 µM | > 100 µM | > 100 µM | 
2 | COc1ccc2nc3ccc(OC)cc3c(S(=O)Cc3ccc([N+](=O)[O-])cc3)c2c1 (stereo not drawn) | 10.5 µM | > 23.2 µM | 25.9 µM | 42 µM | 15.7 µM | > 100 µM | 34.5 µM | 32.5 µM | 36.3 µM | 11.4 µM
3 | c1ccc(COc2ccc(C[P+](c3ccccc3)(c3ccccc3)c3ccccc3)cc2)cc1 | 13.6 µM | 1.94 µM | 3.19 µM | 1.66 µM | 5.04 µM | 2.17 µM | 2.2 µM | 3.04 µM | 5.51 µM | 11.6 µM
4 | COc1ccc(C[C@@H]2CN(C(=O)c3ccccc3)[C@H](Cc3ccc(O)cc3)CN2C(=O)c2ccccc2)cc1Br | > 100 µM | > 100 µM | > 100 µM | > 100 µM | > 100 µM | > 100 µM | > 100 µM | > 100 µM | > 100 µM | > 100 µM
5 | CCOC(=O)CC(C)C(C#N)(OP1(=O)OC(c2ccccc2)C(C)N1C)c1ccccc1 (stereo not drawn) | > 100 µM | 73.1 µM | > 100 µM | > 100 µM | > 100 µM | > 100 µM | > 100 µM | > 100 µM | > 100 µM | > 100 µM
6 | CC1C(c2ccc(N(C)C)cc2)c2cc3c(cc2OC1N1CCCC1)OCO3 (stereo not drawn) | > 100 µM | > 100 µM | 78 µM | > 100 µM | > 100 µM | 97.3 µM | > 100 µM | > 100 µM | 72.3 µM | > 100 µM
7 | CCC1(O)C=CC(=O)C=C1 | 55.5 µM | > 100 µM | > 100 µM | 33.5 µM | 57.6 µM | > 100 µM | > 100 µM | > 100 µM | 67.9 µM | > 52.5 µM
8 | CCOC(=O)NNC(=O)NCCNC(=O)NNC(=O)OCC | > 100 µM | > 100 µM | > 100 µM | > 100 µM | > 100 µM | > 100 µM | > 100 µM | > 100 µM | > 100 µM | > 100 µM
9 | O=c1c2cc([N+](=O)[O-])ccc2n2n1Cc1ccccc1CC2 | > 100 µM | > 100 µM | > 100 µM | > 100 µM | > 100 µM | > 100 µM | > 100 µM | 52.5 µM | > 100 µM | > 100 µM
10 | O=C(Cc1ccc(Cl)c(Cl)c1)NCCCN1CCN(CCCN2CCCCC2)CC1 | 46.5 µM | 28.8 µM | > 100 µM | 31.2 µM | 4.95 µM | 7.5 µM | 46.6 µM | 39.3 µM | 31 µM | 19.6 µM
11 | O=S(=O)(O)c1ccc(NN(c2c(O)ccc3ccccc23)S(=O)(=O)O)cc1 | > 100 µM | > 100 µM | > 100 µM | > 100 µM | > 100 µM | > 100 µM | > 100 µM | > 100 µM | > 100 µM | > 100 µM
12 | COCCC(NC(=O)C(CC(C)C)NC(=O)OC(C)(C)C)C(N)=O (stereo not drawn) (Boc-Leu-[hSer](Me)-NH2; configuration not given here) | > 100 µM | > 100 µM | > 100 µM | > 100 µM | > 100 µM | > 100 µM |  | > 100 µM | > 100 µM | > 100 µM
13 | COc1ccc(NC(=S)NN=C(C)c2cccc(C(C)=NNC(=S)Nc3ccc(OC)cc3)n2)cc1 | > 100 µM | > 100 µM | > 100 µM | 84.2 µM | > 100 µM | > 100 µM | > 100 µM | > 100 µM | > 100 µM | > 100 µM
14 | c1cc(-c2cscc2-c2ccsc2)cs1 | > 100 µM | > 100 µM | 64.2 µM | 38 µM | > 100 µM | > 100 µM | > 100 µM | > 100 µM | > 100 µM | > 100 µM
15 | COc1ccc(-n2c(CCCC(=O)O)nc3c2C(=O)c2ccccc2C3=O)cc1 | > 100 µM | > 100 µM | > 100 µM | > 100 µM | > 100 µM | > 100 µM | > 100 µM | > 100 µM | > 100 µM | > 100 µM
16 | COC1/C=C\C=C(/C)C(=O)NC2=CC(=O)C(NCCCl)=C(CC(C)CC(OC)C(O)C(C)/C=C(/C)C1OC(N)=O)C2=O (stereo not drawn) | 2.77 µM | 5.13 µM | 58.4 µM | 2.01 µM | 2.52 µM | 13.5 µM | 11.7 µM | 22.7 µM | 4.55 µM | 0.911 µM
17 | COc1ccc2c(c1O)-c1c(OC)c(OC)cc3c1[C@H](C2)[N+](C)(C)CC3 | > 100 µM | > 100 µM | > 100 µM | > 100 µM | > 100 µM | > 100 µM | > 100 µM | > 100 µM | > 100 µM | > 100 µM
